Source: publication PMC11866186, “Novel Benzimidazole–Oxadiazole Derivatives as Anticancer Agents with VEGFR2 Inhibitory Activity: Design, Synthesis, In Vitro Anticancer Evaluation, and In Silico Studies” (ACS Omega, 2025)
Where two headings read alike, the source gives them in different places.

Experiments:
hTERT-HPNE cell line = assay: MTT assay, normal pancreas hTERT-HPNE cells; format: cell-based; settings: normal human pancreas cells, 24 h, read-out: IC50 against hTERT-HPNE
Method: (§1) By comparing the compounds’ cytotoxic effects against tumor cell lines and normal cell lines, the drug safety parameter for the anticancer activity of the compounds was evaluated, thereby confirming their cytoprotective qualities. In this study, normal human lung (CCD-19Lu) and normal human pancreas (hTERT-HPNE) cell lines were used as controls. The selectivity index (SI) calculated for the compounds tested scales the IC50 values of the compounds against various tumor cell lines with the IC50 values against normal cell lines (Table 2). […] The differential selectivity indices underscore the importance of targeted therapeutic strategies and the potential for these compounds to provide selective anticancer effects with reduced toxicity to normal cells.
(§2) Many analyses are performed to determine cell proliferation. MTT analysis is one of the viability determination tests. According to the working mechanism of the method, the dye containing the tetrazolium ring reacts with the dehydrogenase enzymes in the cells, only to be reduced and broken down by the metabolic cells, turning into water-insoluble formazan crystals. Color changes associated with mitochondrial activity and resulting from the addition of a solvent as a result of the reaction are measured in the microplate reader as optical density data values.[30] Cells were planted in flat-bottomed, 96-well, sterile, lidded, disposable microplates with 1 × 10^4 cells per well in 200 μL of appropriate medium and were allowed to adhere to the plate bottom by incubating for 24 h. At the end of 24 h, 100 μL of medium was withdrawn, and test substances at different concentrations, prepared in 100 μL, were added. Following the substance application, after a 24 h incubation period, 20 μL of stock MTT solution (MTT solution dissolved in 5 mg/mL PBS and filtered before application) was added to each well and protected from light, and the incubation continued for 3 h. Then, the media of the cells were completely withdrawn, and 100 μL of DMSO was added to dissolve the formazan crystals. After shaking in the dark for 15 min, the optical densities (absorbance) of the color changes at 540–570 and 650 nm reference wavelengths were read in the microplate reader. The data were calculated and created in Microsoft Office Excel. For this purpose, first, the blind well value and the control groups of colored substances were removed from the optical readings. The averages of optical densities and % viability values were made from Excel formula calculations, and the results were discussed. The viability of the control group was assumed to be 100%, and all other viability values were calculated based on this (series were run in n = 5 replicates).

A549 cell line = assay: MTT assay, A549 cells; format: cell-based, human; settings: for IC50: Homo sapiens, A549, MTT, 24 h, read-out: IC50 against A549
Method: (§3) The synthesized compounds 4a–4s were screened for their in vitro anticancer activity via the standard MTT assay using three human tumor cell lines, namely, the human lung adenocarcinoma cell line (A549), the human breast cancer cell line (MCF-7), and the human pancreas cell line (PANC-1). Cisplatin was used as a reference drug. […] When the structures of the compounds are evaluated, it is seen that the compounds are derived from two different sources. There are hydroxyl and methoxy substituents on the phenyl ring attached to the benzimidazole. It has also been derivatized using different groups on the phenyl ring close to oxadiazole. When the activities in the PANC-1 cell line are evaluated, it is seen that the activity of compounds bearing the 2,4-dichloro substituent is especially high.
as §2

MCF-7 cell line = assay: MTT assay, MCF-7 cells; format: cell-based, human; settings: Homo sapiens, MCF7, 24 h, read-out: IC50 against MCF-7
Method: as §3, §2

CCD-19Lu cell line = assay: MTT assay, normal lung CCD-19Lu cells; format: cell-based; settings: CCD 19Lu, normal human lung cells, 24 h, read-out: IC50 against CCD-19Lu
Method: as §1, §2

VEGFA = VEGFA immunofluorescent staining in MCF-7 cells; format: cell-based, human; settings: 24 h treatment, anti-VEGFA antibody, semiquantitative scoring
Description: An endogenous angiogenic growth factor called VEGFA primarily promotes the migration and proliferation of vascular endothelial cells.[2] Fluorescent staining degrees of the MCF-7 cancer cell line, marked with an anti-VEGFA antibody and immunofluorescence technique, were compared under light microscopy (Figure 4). […] Five different areas were selected for each group. All cell nuclei seen in the selected areas are compared with those stained VEGFA positive.
For VEGFA immunofluorescent staining, cells were grown on sterile coverslips in 6-well culture dishes. The cells were purified from the medium and washed with phosphate-buffered saline (PBS) (Sigma-Aldrich, Germany). The washed cells were fixed in ph 7.4% paraformaldehyde (Merk, Germany) for 20 min at room temperature. After fixation, the cells were washed two times with PBS for 5 min. For permeability, the cells were incubated in 0.1% Triton X-100 (Sigma-Aldrich, Germany) solution for 10 min. PBS was then washed for 5 min. After washing, Ultra V Block (Thermo Scientific, PBQ180830, USA) was dropped and waited at room temperature for 30 min to prevent nonspecific binding. […] Fluorescent microscopy (Olympus BX51, Japan) was employed by using suitable filters for fluorescence examination and then by making a registration.

VEGFR2 = target: T1, VEGFR2 (Homo sapiens, UniProt P35968); assay: VEGFR2 Kinase Assay Kit inhibition; format: biochemical; settings: read-out: IC50 against VEGFR2
T1 construct: purchased
T1 sequence (P35968 20-1356): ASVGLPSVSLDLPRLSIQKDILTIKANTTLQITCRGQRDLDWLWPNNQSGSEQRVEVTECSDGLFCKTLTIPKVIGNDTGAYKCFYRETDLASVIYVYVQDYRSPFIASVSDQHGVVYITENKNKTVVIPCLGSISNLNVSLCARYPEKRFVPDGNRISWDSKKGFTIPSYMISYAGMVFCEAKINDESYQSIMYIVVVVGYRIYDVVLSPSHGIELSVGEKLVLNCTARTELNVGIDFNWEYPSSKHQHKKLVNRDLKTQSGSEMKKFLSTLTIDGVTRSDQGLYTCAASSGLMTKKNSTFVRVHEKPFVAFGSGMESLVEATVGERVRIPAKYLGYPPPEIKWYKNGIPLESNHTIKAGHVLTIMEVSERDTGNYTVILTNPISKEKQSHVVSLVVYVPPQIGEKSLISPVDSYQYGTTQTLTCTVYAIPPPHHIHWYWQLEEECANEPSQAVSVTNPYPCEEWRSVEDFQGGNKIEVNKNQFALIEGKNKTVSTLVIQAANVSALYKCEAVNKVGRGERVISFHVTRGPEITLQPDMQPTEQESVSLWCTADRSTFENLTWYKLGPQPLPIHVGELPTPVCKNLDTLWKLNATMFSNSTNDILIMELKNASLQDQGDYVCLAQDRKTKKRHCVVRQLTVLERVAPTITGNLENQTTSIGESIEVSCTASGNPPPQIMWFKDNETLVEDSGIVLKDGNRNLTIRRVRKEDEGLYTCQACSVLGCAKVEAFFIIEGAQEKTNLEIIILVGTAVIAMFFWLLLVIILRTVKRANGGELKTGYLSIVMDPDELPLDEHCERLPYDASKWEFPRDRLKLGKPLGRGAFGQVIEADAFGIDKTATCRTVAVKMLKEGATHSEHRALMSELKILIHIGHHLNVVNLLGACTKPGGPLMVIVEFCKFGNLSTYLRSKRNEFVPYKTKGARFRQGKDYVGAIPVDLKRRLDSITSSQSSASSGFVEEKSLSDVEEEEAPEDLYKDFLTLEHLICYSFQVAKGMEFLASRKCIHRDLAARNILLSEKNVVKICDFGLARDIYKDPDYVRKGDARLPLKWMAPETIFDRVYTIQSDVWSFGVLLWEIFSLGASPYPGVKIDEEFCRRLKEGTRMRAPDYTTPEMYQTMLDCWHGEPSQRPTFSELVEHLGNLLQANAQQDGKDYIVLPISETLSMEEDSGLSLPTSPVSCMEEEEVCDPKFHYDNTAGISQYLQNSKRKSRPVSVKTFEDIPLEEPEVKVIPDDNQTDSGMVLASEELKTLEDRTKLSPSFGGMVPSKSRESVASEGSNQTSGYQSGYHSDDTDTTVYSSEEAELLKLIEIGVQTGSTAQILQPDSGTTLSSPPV
Method: The VEGFR2 Kinase Assay Kit was used for VEGFR2 inhibition. The experiment was performed in vitro according to the kit procedure.[31]

PANC-1 cell line = assay: MTT assay, PANC-1 cells; format: cell-based, human; settings: for IC50: MTT, 24 h, read-out: IC50 against PANC-1
Method: Cisplatin was used as a reference drug. […] There are hydroxyl and methoxy substituents on the phenyl ring attached to the benzimidazole. It has also been derivatized using different groups on the phenyl ring close to oxadiazole.
as §2

Structure (SMILES) | IC50 (hTERT-HPNE cell line) | IC50 (A549 cell line) | IC50 (MCF-7 cell line) | IC50 (CCD-19Lu cell line) | VEGFA immunolocalization compared with control (VEGFA) | Selectivity index (A549) (A549 cell line; SI = cytotoxicity against CCD-19Lu cells/cytotoxicity against A549 cell line) | IC50 (VEGFR2) | IC50 (PANC-1 cell line; Homo sapiens, PANC-1, 24 h) | IC50 (PANC-1 cell line) | Selectivity index (PANC-1) (PANC-1 cell line; SI = cytotoxicity against hTERT-HPNE cells/cytotoxicity against PANC-1 cell line)
COc1ccc(-c2nc3ccc(-c4nnc(SCC(=O)c5ccc(Cl)cc5Cl)o4)cc3[nH]2)cc1 [4r, 2-((5-(2-(4-Methoxyphenyl)-1H-benzimidazol-6-yl)-1,3,4-oxadiazol-2-yl)thio)-1-(2,4-dichlorophenyl)-ethanone] | 10.9 µM | 0.3 µM | 0.5 µM | 0.8 µM | less VEGFA immunolocalization |  |  |  |  | 
COc1ccc(-c2nc3ccc(-c4nnc(SCC(=O)c5ccc(O)c(O)c5)o4)cc3[nH]2)cc1 [4s, 2-((5-(2-(4-Methoxyphenyl)-1H-benzimidazol-6-yl)-1,3,4-oxadiazol-2-yl)thio)-1-(3,4-dihydroxyphenyl)-ethanone] | 38.3 µM | 1.6 µM | 1.2 µM | 1.3 µM | less VEGFA immunolocalization | 0.81 | 0.502 ± 0.028 µM | 6.7 µM | 6.6 µM | 5.80
